According to US11753408B2, “Compounds and method for blocking transmission of malarial parasite” (The United States of America, as represented by the …, priority 2016, dated 2023):
Read-outs that look alike come from different tables or passages of the source.

Assays:
[1] = Microsomal stability (rat); assay type: in vitro ADME; conditions: rat microsomes
[2] = system: Stage III-V gametocytes (blood stage P. falciparum parasites); assay: In vitro drug activity on gametocytes (AlamarBlue viability assay); assay type: cell-based, Plasmodium falciparum; conditions: read-out: Gametocyte EC50
How it was run: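 P. falciparum 3D7 stage III–V gametocytes (also HB3, Dd2), enriched by 50 mM N-acetylglucosamine and Percoll gradient, seeded at 20,000/well with compound for 72 h at 37° C, 5% CO2. AlamarBlue then added for 24 h; viability read as fluorescence (Ex 525, Em 598 nm).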

mTOR = mTOR (Homo sapiens, UniProt P42345); assay: mTOR activity (no method described); assay type: biochemical
PAMPA permeability = assay type: in vitro ADME
Solubility at pH 7.4 = assay type: physicochemical
[3] = system: Asexual parasites of P. falciparum strain 3D7; assay: In vitro drug activity on asexual parasites (SYBR Green assay); assay type: cell-based, Plasmodium falciparum
How it was run: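 3D7 parasites at 0.5% parasitemia and 2% hematocrit were exposed to drugs (DMSO ≤0.5%) for 72 h under standard culture conditions, in duplicate. After freeze-thaw lysis, SYBR Green I lysis buffer was added for 30 min at room temperature, and fluorescence was read at 490/520 nm.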

[4] = P. falciparum stage III-V gametocytes, 72 h incubation, AlamarBlue
[5] = P. falciparum 3D7 asexual parasites, 72 h, SYBR Green

SMILES	Microsomal Stability (rat) T1/2 [1]	EC50 [2]	mTOR (mTOR)	PAMPA Permeability (PAMPA permeability)	Sol @ pH 7.4 (Solubility at pH 7.4)	EC50 [3]	EC50 [2, 4]	PAMPA Permeability (×10^6 cm/s) (PAMPA permeability)	EC50 [3, 5]	Sol @ pH 7.4 (ug/mL) (Solubility at pH 7.4)
COc1cc(C(=O)N2CCOCC2)ccc1-n1c(=O)ccc2cnc3ccc(-c4ccc(CN(C)C)cc4)cc3c21 [Compound 193]	>30 min	0.814 µM	8290 nM	162 ×10⁻⁶ cm/s	>81 ug/mL					
CN(C)Cc1cccc(-c2ccc3ncc4ccc(=O)n(-c5ccc(C(=O)N6CCOCC6)cc5)c4c3c2)c1 [Compound 173]		2.53 µM	100000 nM	366 ×10⁻⁶ cm/s	>77.00 ug/mL					
O=Cc1ccc(-c2ccc3ncc4ccc(=O)n(-c5ccc(C(=O)N6CCOCC6)cc5)c4c3c2)cc1 [Compound 169]		0.63 µM	631.5 nM	204 ×10⁻⁶ cm/s	2.8 ug/mL	0.301 µM				
COc1cc(C(=O)NC2CC2)ccc1-n1c(=O)ccc2cnc3ccc(-c4ccc(F)cc4)cc3c21 [Compound 188]	21.5 min	0.602 µM	7201 nM	1250 ×10⁻⁶ cm/s	<1 ug/mL					
Cc1cccc(-c2ccc3ncc4ccc(=O)n(-c5ccc(C(=O)N6CCOCC6)cc5)c4c3c2)c1 [Compound 121]	5.4 min	0.443 µM	522.6 nM	243 ×10⁻⁶ cm/s		0.221 µM				
CC1CC1NC(=O)c1ccc(-n2c(=O)ccc3cnc4ccc(-c5ccc(N)nc5)cc4c32)cc1 (stereo not drawn) [Compound 338]		0.0659 µM	150.5 nM	141 ×10⁻⁶ cm/s	0.32 ug/mL					
O=C1NCc2cc(-n3c(=O)ccc4cnc5ccc(-c6ccc(CN7CCCC7)cc6)cc5c43)ccc21 [Compound 371]	>30 min						2.47 µM	1.2 ×10^6 cm/s	0.472 µM	45.3 ug/mL
CN(C)Cc1ccc(-c2ccc3ncc4ccc(=O)n(-c5ccc6c(c5)CNC6=O)c4c3c2)cc1 [Compound 340]	>30.0 min						0.617 µM	5.2 ×10^6 cm/s	0.266 µM	>68.0 ug/mL
CN(C)Cc1ccc(-c2ccc3ncc4ccc(=O)n(-c5ccc6c(c5)CN(C5CC5)C6=O)c4c3c2)cc1 [Compound 354]	>30.0 min						1.91 µM	292.3 ×10^6 cm/s	0.687 µM	>74.0 ug/mL
CS(=O)(=O)c1ccc(-n2c(=O)ccc3cnc4ccc(-c5ccc(Cl)cc5)cc4c32)cc1 [Compound 25]	>30.0 min						0.117 µM	<1.5 ×10^6 cm/s	0.0147 µM	<1.0 ug/mL
Nc1ccc(-c2ccc3ncc4ccc(=O)n(-c5ccc6c(c5)NC(=O)C6)c4c3c2)cn1 [Compound 394]	>30 min						0.439 µM	<1 ×10^6 cm/s	0.13 µM	<1 ug/mL
N#Cc1cccc(-c2ccc3ncc4ccc(=O)n(-c5ccc(C(=O)N6CCOCC6)cc5)c4c3c2)c1 [Compound 124]	19.7 min	0.349 µM	1357 nM	20.4 ×10⁻⁶ cm/s		0.144 µM				
Cc1c(C#N)cccc1-n1c(=O)ccc2cnc3ccc(-c4ccc(Cl)cc4)cc3c21 [Compound 8]	14.5 min						0.139 µM	<1 ×10^6 cm/s	0.0603 µM	<1 ug/mL
CS(=O)(=O)c1ccc(-n2c(=O)ccc3cnc4ccc(-c5ccc(Cl)c(N)c5)cc4c32)cc1C(F)(F)F [Compound 45]	8.9 min						0.209 µM	144.4 ×10^6 cm/s	0.0778 µM	<1.0 ug/mL
CN(C)Cc1ccc(-c2ccc3ncc4ccc(=O)n(-c5ccc(S(=O)(=O)NC6CC6)cc5)c4c3c2)cc1 [Compound 57]	>30.0 min						0.84 µM	527.8 ×10^6 cm/s	0.381 µM	7.9 ug/mL
O=C1NCc2cc(-n3c(=O)ccc4cnc5ccc(-c6ccc(CCN7CCOCC7)cc6)cc5c43)ccc21 [Compound 372]	>30 min						1.05 µM	<1 ×10^6 cm/s	0.54 µM	<1 ug/mL
CN(C)C=NS(=O)(=O)c1ccc(-n2c(=O)ccc3cnc4ccc(-c5ccc(Cl)cc5)cc4c32)cc1 [Compound 44]	4.6 min						0.135 µM	34.8 ×10^6 cm/s	0.0312 µM	<1.0 ug/mL

SMILES	Microsomal Stability (rat) T1/2 [1]	EC50 [2]	mTOR (mTOR)	PAMPA Permeability (PAMPA permeability)	Sol @ pH 7.4 (Solubility at pH 7.4)	EC50 [3]	EC50 [2, 4]	PAMPA Permeability (×10^6 cm/s) (PAMPA permeability)	EC50 [3, 5]	Sol @ pH 7.4 (ug/mL) (Solubility at pH 7.4)
O=C(c1ccc(-n2c(=O)ccc3cnc4ccc(-c5cccc(Cl)c5)cc4c32)cc1)N1CCOCC1 [Compound 122]	5.4 min	0.371 µM	1303 nM	822 ×10⁻⁶ cm/s		0.261 µM				
Cn1c(=O)n(-c2ccc(N3CCN(CCO)CC3)c(C#N)c2)c2c3cc(-c4ccc(Cl)cc4)ccc3ncc21 [Compound 417]		0.0365 µM	319 nM	< 1 ×10⁻⁶ cm/s	<1 ug/mL					
N#Cc1cccc(-n2c(=O)ccc3cnc4ccc(-c5ccc(N)nc5)cc4c32)c1 [Compound 20]	>30.0 min						0.0226 µM	505.6 ×10^6 cm/s	0.0117 µM	<1.0 ug/mL
CCNC(=O)c1cc(-c2ccc3ncc4ccc(=O)n(-c5ccc(S(C)(=O)=O)cc5)c4c3c2)ccc1Cl [Compound 53]	2.8 min						6.85 µM	115.9 ×10^6 cm/s	3.79 µM	9.6 ug/mL
CN(C)CCc1ccc(-c2ccc3ncc4ccc(=O)n(-c5ccc6c(c5)CNC6=O)c4c3c2)cc1 [Compound 375]	>30 min						0.715 µM	<1.1 ×10^6 cm/s	0.389 µM	13.1 ug/mL
CS(=O)(=O)c1ccc(-n2c(=O)ccc3cnc4ccc(-c5ccc(Cl)c(C#N)c5)cc4c32)cc1 [Compound 32]	>30.0 min						0.0928 µM	39.6 ×10^6 cm/s	0.0855 µM	<1.0 ug/mL
Nc1ccc(-c2ccc3ncc4ccc(=O)n(-c5ccc6c(c5)C(=O)NC6)c4c3c2)cn1 [Compound 387]	>30.0 min						1.84 µM	<4.1 ×10^6 cm/s	0.316 µM	1.4 ug/mL
CNC(=O)c1ccc(-n2c(=O)ccc3cnc4ccc(-c5ccc(Cl)cc5)cc4c32)cc1 [Compound 99]	16.9 min	0.13 µM		1050 ×10⁻⁶ cm/s	<1.0 ug/mL	0.0467 µM				
CN(C)S(=O)(=O)c1ccc(-n2c(=O)ccc3cnc4ccc(-c5ccc(Cl)cc5)cc4c32)cc1 [Compound 42]	4.9 min						0.119 µM	97.4 ×10^6 cm/s	0.0374 µM	<1.0 ug/mL
CS(=O)(=O)c1ccc(-n2c(=O)ccc3cnc4ccc(-c5ccc(N)nc5)cc4c32)cc1 [Compound 79]	>30.0 min						0.0228 µM	<11.8 ×10^6 cm/s	0.00476 µM	<1.0 ug/mL
O=c1ccc2cnc3ccc(-c4ccc(Cl)cc4)cc3c2n1-c1ccc(S(=O)(=O)N2CCOCC2)cc1 [Compound 38]	12.7 min						0.187 µM	32.5 ×10^6 cm/s	0.22 µM	<1.0 ug/mL
Cc1ccc(C#N)cc1-n1c(=O)ccc2cnc3ccc(-c4ccc(Cl)cc4)cc3c21 [Compound 3]	12.1 min						0.264 µM	621.2 ×10^6 cm/s	0.111 µM	<0.1 ug/mL
Nc1ccc(-c2ccc3ncc4ccc(=O)n(-c5cccc(S(N)(=O)=O)c5)c4c3c2)cn1 [Compound 77]	>30.0 min						0.295 µM	<1.0 ×10^6 cm/s	0.0817 µM	33.6 ug/mL
COC(=O)c1cc(-c2ccc3ncc4ccc(=O)n(-c5ccc(S(C)(=O)=O)cc5)c4c3c2)ccc1Cl [Compound 49]	4.3 min						1.99 µM	235.8 ×10^6 cm/s	3.19 µM	<1.0 ug/mL
Cc1cc(C(=O)NC2CC2)ccc1-n1c(=O)ccc2cnc3ccc(-c4ccc(Cl)cc4)cc3c21 [Compound 88]		0.141 µM	1841 nM	117 ×10⁻⁶ cm/s	0.51 ug/mL	0.0567 µM				
CN(C)Cc1ccc(-c2ccc3ncc4ccc(=O)n(-c5ccc6c(c5)NC(=O)C6)c4c3c2)cc1 [Compound 374]	>30 min						12.9 µM	<1.6 ×10^6 cm/s	4.18 µM	52.5 ug/mL
